In patent publication US8574569B2, “Stabilized protease composition” (Trobio AB, priority 2005, dated 2013):
Read-outs that look alike come from different tables or passages of the source.

Assays:
human thrombin [1] = target: T1, human thrombin (Homo sapiens, UniProt P00734); experiment: Stability of human thrombin solutions (fibrinogen clotting activity decay curves, T 70%); assay type: physicochemical; set-up: The thrombin used in the study is human thrombin derived from plasma; purchased Biovitrum AB, Sweden; host or cells: human plasma
Procedure: This value, denoted “T 70%”, is chosen since it corresponds to what could be accepted as a maximum permitted loss in activity during a life span of a commercial product.
In the experimental studies, a high temperature (37° C.) has been used, as well as a high concentration of enzyme. This has been made in order to obtain stability data in reasonably short times, and not have to wait for months or years.
(§1) The clotting times were measured using an Amelungen Kc 1 coagulometer (Amelungen, Germany). […] From the values obtained, activity decay curves could be constructed.

trypsin = target: T2, trypsin (Bos taurus, UniProt P00760); experiment: Stability of trypsin solutions (TAME substrate, T 70%); assay type: physicochemical; settings: for T 70%: 100 μg/ml trypsin in 10 mM HEPES, 0.13 M NaCl, pH 7.4, 37° C.; for increase in stabilization of trypsin, factor: T 70% relative to trypsin without additives, 37° C.
T2 construct: 100 μg/ml of trypsin (TPCK-treated, Sigma-Aldrich); purchased Sigma-Aldrich
T2 sequence (P00760 24-246): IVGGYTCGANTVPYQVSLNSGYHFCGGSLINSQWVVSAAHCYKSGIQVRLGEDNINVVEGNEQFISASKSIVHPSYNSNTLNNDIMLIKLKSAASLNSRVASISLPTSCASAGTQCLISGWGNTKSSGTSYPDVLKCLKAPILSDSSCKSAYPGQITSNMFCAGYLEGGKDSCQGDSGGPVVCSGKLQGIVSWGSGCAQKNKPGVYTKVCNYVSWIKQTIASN
Procedure: The stabilization of solutions of trypsin in accordance with the invention was tested. The activity of trypsin was determined using tosyl arginine methyl ester (TAME) as substrate and measuring the absorbance change at 247 nm in a spectrophotometer. Solutions containing 100 μg/ml of trypsin (TPCK-treated, Sigma-Aldrich) in 10 mM HEPES and 0.13 M NaCl, pH 7.4, as well as stabilizers as indicated in Table 3 below were incubated at 37° C., and samples were taken out at various time intervals for activity determination.

plasmin = target: T3, plasmin (Homo sapiens, UniProt P00747); experiment: Stability of plasmin solutions (Chromozym TH chromogenic substrate, T 70%); assay type: physicochemical; settings: for T 70%: 100 μg/ml plasmin in 10 mM HEPES, 0.13 M NaCl, pH 7.4, 37° C.; for increase in stability of plasmin composition, factor: T 70% relative to plasmin without additives, 37° C.
T3 construct: 100 μg/ml of plasmin (specific activity 3.2 units/mg, Sigma-Aldrich); purchased Sigma-Aldrich
T3 sequence (P00747 581-810 limits assumed, species assumed): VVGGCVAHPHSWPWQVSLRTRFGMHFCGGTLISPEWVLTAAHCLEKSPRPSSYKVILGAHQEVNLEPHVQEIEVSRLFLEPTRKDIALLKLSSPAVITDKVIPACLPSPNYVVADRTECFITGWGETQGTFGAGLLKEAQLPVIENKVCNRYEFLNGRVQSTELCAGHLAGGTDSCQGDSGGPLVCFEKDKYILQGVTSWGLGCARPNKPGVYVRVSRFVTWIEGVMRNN
T3 sequence (P00747 97-580 partner limits assumed, species assumed): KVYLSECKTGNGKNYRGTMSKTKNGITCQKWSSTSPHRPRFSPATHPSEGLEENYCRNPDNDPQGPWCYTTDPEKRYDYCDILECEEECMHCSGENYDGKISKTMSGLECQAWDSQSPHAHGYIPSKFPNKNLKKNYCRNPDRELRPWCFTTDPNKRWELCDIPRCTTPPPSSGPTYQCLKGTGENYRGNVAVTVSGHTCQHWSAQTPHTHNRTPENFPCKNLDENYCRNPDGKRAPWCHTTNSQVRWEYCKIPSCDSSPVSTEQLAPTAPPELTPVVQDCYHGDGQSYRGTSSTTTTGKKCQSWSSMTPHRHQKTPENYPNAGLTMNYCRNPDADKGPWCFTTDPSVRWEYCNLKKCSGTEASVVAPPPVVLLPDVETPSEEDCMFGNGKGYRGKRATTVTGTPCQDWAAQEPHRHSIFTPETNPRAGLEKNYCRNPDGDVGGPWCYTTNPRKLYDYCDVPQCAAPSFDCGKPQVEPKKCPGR
Procedure: The stabilization of solutions of plasmin in accordance with the invention was tested. The activity of plasmin was determined using chromogenic peptide substrate Chromozym TH (Pentapharm, Switzerland) and measurement of absorbance change at 405 nm in a spectrophotometer. Solutions containing 100 μg/ml of plasmin (specific activity 3.2 units/mg, Sigma-Aldrich) in 10 mM HEPES and 0.13 M NaCl, pH 7.4, as well as stabilizers as indicated in Table 2 below were incubated at 37° C., and samples were taken out at various time intervals for activity determination.

human thrombin [2] = target: T1, human thrombin; settings: for Apparent inhibition (%) / Apparent thrombin concentration (U/ml): 89 units/ml human thrombin, 0.01 M HEPES, 0.13 M NaCl, pH 7.4
Procedure: The clotting tests in this experimental setup were performed in 0.01 M HEPES, 0.13 M NaCl buffer of pH 7.4, which is according to standard procedure (EU Pharmacopeia). […] Solutions of various concentrations of morpholine were prepared in the HEPES buffer by adding a concentrated morpholine solution adjusted to pH 7.4.

human thrombin [3] = target: T1, human thrombin; experiment: Stability of human thrombin solutions (fibrinogen clotting activity decay curves, T 70%); assay type: physicochemical; set-up: The thrombin used in the study is human thrombin derived from plasma; purchased Biovitrum AB, Sweden; host or cells: human plasma; settings: 1 mg/ml thrombin in 10 mM HEPES, 0.13 M NaCl, pH 7.4
bovine thrombin = target: T4, bovine thrombin (Bos taurus, UniProt P00735); experiment: Stability of bovine thrombin solutions (T 70%); assay type: physicochemical; settings: 0.4 mg/ml bovine thrombin (Baxter) in HEPES buffer, 37° C.
T4 construct: purchased Baxter
Procedure: as §1

[4] = time to reach 70% of initial activity, 1 mg/ml thrombin in 10 mM HEPES, 0.13 M NaCl, pH 7.4, 37° C.
[5] = T 70% relative to 1 mg/ml thrombin without additives, 37° C.

`OCCN1CCOCC1` [morpholino ethyl alcohol] was tested, and the “T 70%” value (human thrombin [1]; [4]) was 3.8 days.
For `N=C(N)c1ccccc1` [benzamidine, reference compound], the “T 70%” value (trypsin) was 43 h, the “increase in stabilization of trypsin, factor” value (trypsin) was 72 and the “T 70%” value (plasmin) was 16 h.
With `C1COCCN1` [morpholine] the “Apparent inhibition (%)” value (human thrombin [2]; 0.05 M added) was 4%, the “Apparent thrombin concentration (U/ml)” value (human thrombin [2]; 0.05 M added) was 87 U/ml and the “Apparent inhibition (%)” value (human thrombin [2]; 0.10 M added) was 20%. For the same compound, the “Apparent thrombin concentration (U/ml)” value (human thrombin [2]; 0.10 M added) was 71 U/ml, the “Apparent inhibition (%)” value (human thrombin [2]; 0.15 M added) was 45% and the “Apparent thrombin concentration (U/ml)” value (human thrombin [2]; 0.15 M added) was 49 U/ml. The “Apparent inhibition (%)” value (human thrombin [2]; 0.20 M added) was 43%, the “Apparent thrombin concentration (U/ml)” value (human thrombin [2]; 0.20 M added) was 51 U/ml and the “inhibitor of thrombin (conclusion)” value (human thrombin [2]; clotting time prolongation ascribed to ionic strength) was “not an inhibitor of thrombin”. The “T 70%” value (human thrombin [1]; [4]) was 8.5 days, the “T 70%” value (trypsin) was 8 h and the “increase in stabilization of trypsin, factor” value (trypsin) was 13. For the same compound, the “T 70%” value (plasmin) was 12 h and the “increase in stability of plasmin composition, factor” value (“increase in stability” for short) (plasmin) was 4.
For N-(2′-phenoxy)-4-aminopyridin, the “increase in stabilization, factor” value (human thrombin [1]; [5]) was 22, the “T 70%” value (human thrombin [1]; time to reach 70% of initial activity, 1 mg/ml thrombin in 10 mM HEPES, 0.13 M NaCl, pH 7.4, 37° C., listed as 1.9 mM N-(2′-phenoxy)-4-aminopyridin) was 35 days and the “T 70%” value (human thrombin [1]; time to reach 70% of initial activity, 1 mg/ml thrombin in 10 mM HEPES, 0.13 M NaCl, pH 7.4, 37° C., listed as 3.1 mM N-(2′-phenoxy)-4-aminopyridin) was 74 days.
With aminobenzamidine [reference compound] the “increase in stabilization, factor” value (human thrombin [1]) was 12.5, the “T 70%” value (human thrombin [1]; pH 7.4) was 20 days and the “T 70%” value (plasmin) was 52 h. The “increase in stability” value (plasmin) was 17.
For thrombin, the “T 70%” value (human thrombin [3]; refrigerator storage (around 5° C.)) was 36 days, the “T 70%” value (human thrombin [3]; room temperature (around 21° C.)) was 5.4 days and the “T 70%” value (human thrombin [1]; 15.0 activity units/ml human thrombin in HEPES buffer, pH 7.4) was 23 days.
`O=S(=O)(O)CCCN1CCOCC1` [MOPS, 3-(N-morpholino)propanesulfonic acid] was tested, and the “increase in stabilization, factor” value (human thrombin [1]; [5]) was 4.7 and the “T 70%” value (human thrombin [1]; pH 7.4) was 7.5 days.
For `O=S(=O)(O)CCN1CCOCC1` [morpholino ethyl sulphonic acid], the “T 70%” value (human thrombin [1]; [4]) was 3.2 days.
With “bovine thrombin: bovine thrombin (Baxter), solution in HEPES buffer without additives” the “T 70%” value (bovine thrombin) was 1.3 days.
In the case of `CCN(CC)CCN` [N,N-diethylethylenediamine], the “T 70%” value (human thrombin [1]; [4]) is reported as 10 days, the “T 70%” value (plasmin) is reported as 8 h and the “increase in stability” value (plasmin) is reported as 2.7.
`O=C(O)CCCN1CCOCC1` [morpholino propyl carboxylic acid] was tested, and the “T 70%” value (human thrombin [1]; [4]) was 4.1 days.
For `[Cl-].[Na+]` [NaCl, reference compound], the “Apparent inhibition (%)” value (human thrombin [2]; 0.05 M added) was 17%, the “Apparent thrombin concentration (U/ml)” value (human thrombin [2]; 0.05 M added) was 74 U/ml and the “Apparent inhibition (%)” value (human thrombin [2]; 0.10 M added) was 40%. The “Apparent thrombin concentration (U/ml)” value (human thrombin [2]; 0.10 M added) was 53 U/ml, the “Apparent inhibition (%)” value (human thrombin [2]; 0.15 M added) was 34% and the “Apparent thrombin concentration (U/ml)” value (human thrombin [2]; 0.15 M added) was 58 U/ml. The “Apparent inhibition (%)” value (human thrombin [2]; 0.20 M added) was 37% and the “Apparent thrombin concentration (U/ml)” value (human thrombin [2]; 0.20 M added) was 55 U/ml.
For `O=S(=O)(O)CCCCN1CCOCC1` [morpholino butyl sulphonic acid], the “T 70%” value (human thrombin [1]; [4]) was 4.0 days.
